Values quoted from earlier work as cited in US20030113362A1, “Unique ascorbic acid derivatives with essential amino acids, nonessential amino acid and amino acids that do not occur in protein: the process for their preparation and use in research, medicine, physiology, pharmacology, nutrition, pharmaceuticals, and for cosmetic, commercial and industrial …” (priority 2001, published 2003).

Details: compared with ascorbic acid; test conditions not given

- stability, times more stable than ascorbic acid: 20 times
SMILES: O=C1O[C@H]([C@@H](O)CO)C(O)=C1OS(=O)(=O)O [L-ascorbate 2-sulphate]
